# Assays:
# [1] = test system: differentiated mouse C2C12 myocytes; test: Simvastatin-triggered cell death of differentiated C2C12 myocytes, Crystal violet; assay type: cell-based; conditions: for cell death triggered by simvastatin (relative cell viability): 10 uM simvastatin, 5 days, pranlukast 10 μM, BAY-cysLT2 10 μM, BAY-u9773 1 μM
# Protocol: FIGS. 11A-11B. BAY-cysLT2 and BAY-u9773 but not pranlukast attenuate simvastatin-triggered cell death of differentiated C2C12 mouse myocytes. (FIG. 11A) Survival of mouse C2C12 cells following differentiation into myocytes, treated with 10 uM simvastatin for 5 days in the presence of vehicle, pranlukast (10 μM), BAY-cysLT2 (10 μM), BAY-u9773 (1 μM) or Mevalonate (71.4 μM). The plates were then stained with Crystal violet and the relative cell viability was determined. (FIG. 11B) Quantification of the staining intensity is shown.
# FIGS. 12A-12B. Zileuton but not montelukast attenuates simvastatin-triggered death of differentiated C2C12 mouse myocytes. (FIG. 12A) C2C12 immortalized mouse myoblasts (15,000 cells/100 ul DMEM) were seeded for 24 and then differentiated for 3 days (initiated by serum free medium supplemented with 1×ITS medium) and then treated with […] Simvastatin with or without montelukast (2 μM), zileuton (10 μM) or mevalonate (71.4 μM). After 4 days the cells were stained with crystal violet and photographed under light microscope. (FIG. 12B) Quantification of the staining intensity is shown.
# To study the role of the MGST2-LTC4 pathway in statin-triggered cell death, differentiated mouse C2C12 myocytes in 96 well plates were treated with 10 uM simvastatin or vehicle in the presence of either vehicle, BAY-cysLT2 (10 μM) or BAY-u9773 (1 μM) or sodium mevalonate for 5 days.
# To study the role of the MGST2-LTC4 pathway in statin-triggered cell death, differentiated mouse C2C12 myocytes in 96 well plates were treated with 20 uM simvastatin or vehicle in the presence of either vehicle, zileuton (10 μM) or sodium mevalonate for 4 days.
# [2] = test system: Human WISH cells; test: Brefeldin A-triggered cell death, Crystal violet viability, WISH cells; assay type: cell-based; conditions: Brefeldin A 0.66 μg/ml, 48 hours, BAY-cysLT2 5 μM
# Protocol: (§1) FIGS. 7A-7G. The MGST2-LTC4 pathway mediates ER stress-triggered cell death. (FIG. 7A) Mouse B16 cells were transfected with control siRNA (siControl) or MGST2-specific siRNA (siMGST2), treated with vehicle or tunicamycin (1 μg/ml, 24 hours) (Tm) and then stained with Crystal violet. Relative viability of the cells is shown. N=3 ***p<0.0001. (FIG. 7B) Mouse B16 cells were transfected with control siRNA (siControl) or MGST2-specific siRNA (siMGST2), treated with vehicle or tunicamycin (Tm) and then stained with Crystal violet. Silencing efficiency of mouse MGST2 mRNA as determined by qRT-PCR on replicate samples is shown. N=3, ***p<0.001. (FIG. 7C) HEK 293T cells were mock-transfected, transfected with pcDNA4 or with pcMGST2-FLAG, treated with vehicle (Control) or Brefeldin A (0.66 μg/ml, 24 hours) and then stained with Crystal violet. Relative viability of the cells is shown. N=3 ****p<0.0001. (FIG. 7D) Human HaCaT pre-keratinocytes were treated with vehicle (Control) or Brefeldin A (BfA, 1.33 μg/ml, 48 hours) in the absence or presence of BAY-u9773 (80 nM). The plates were then stained with Crystal violet. Relative viability of the cells is shown. N=4 ***p<0.0001. (FIG. 7E) Human WISH cells were treated either with vehicle (Control) or tunicamycin (1 μg/ml, 48 hours) in the absence or presence of BAY-u9773 (80 nM) and then stained with Neutral red. Relative viability of the cells is shown. […]
# [3] = test system: Human HaCaT pre-keratinocytes; test: ER stress-triggered ROS accumulation, DCFH-DA staining, HaCaT cells treated with Brefeldin A; assay type: cell-based; conditions: Brefeldin A 0.33 μg/ml, 24 hours, reversan 20 μM
# Text: FIGS. 4A-4E. ER stress-triggered ROS accumulation is mediated by MGST2-derived LTC4. (4A) Mouse B16 cells were transfected with control siRNA or MGST2 siRNA, then treated with tunicamycin and stained with the superoxide anion indicator dihydroethidium (DHE). Quantitation of relative DHE fluorescence intensity is presented as determined by the ImageJ program. N=3, ***p<0.001. (FIG. 4B) Mouse B16 cells were transfected with control siRNA or MGST2 siRNA, then treated with tunicamycin and stained with the superoxide anion indicator dihydroethidium (DHE). Silencing efficiency of mouse MGST2 mRNA as determined by qRT-PCR on replicate samples is shown. N=3, ***p<0.001. (FIG. 4C) Human HaCaT pre-keratinocytes were treated with Brefeldin A (0.33 μg/ml, 24 hours) with or without the MRP1 inhibitor reversan (20 μM) or the LTC4 antagonists pranlukast, BAY-cysLT2 or BAY-u9773. The cells were then stained with the ROS indicator DCFH-DA. Quantitative analysis of relative DCF fluorescence intensity is presented. […] N=3, * p<0.05. (FIG. 4D) Immunoblotting with anti FLAG tag of HEK 293T cell extract following transfection with either control pcDNA4 vector or pcMGST2-FLAG. (FIG. 4E) HEK 293T cells were either mock-transfected (Control), transfected with pcDNA4 or with pcMGST2-FLAG and then stained with DHE. Quantitative analysis of relative DHE fluorescence intensity is presented N=4, **p<0.01.
# ER stress and oxidative stress are tightly associated, as ER stress triggers oxidative stress and vice versa. Therefore, a test for determining whether MGST2 and its product LTC4 are involved in ER stress-triggered ROS accumulation was performed. As previously reported, ER stress triggered by tunicamycin leads to accumulation of ROS, as detected by staining with the superoxide anion indicator dihydroethidium (DHE). […] MGST2 consumes GSH by coupling it not only to LTA4 but also to other substrates. […] Triggering ER stress by Brefeldin A generated ROS, as measured by the indicator dichloro-dihydro-fluorescein diacetate (DCFH-DA, FIGS. 4C, 5). […]
# [4] = test system: Human HaCaT pre-keratinocytes; test: ER stress-triggered cell death, Crystal violet viability, HaCaT cells; assay type: cell-based
# Protocol: as §1
# [5] = test system: Human HaCaT pre-keratinocytes; test: ER stress-triggered oxidative DNA damage, anti 8-OHdG immunostaining, HaCaT cells; assay type: cell-based; conditions: Brefeldin A 48 hours
# Protocol: (§2) FIGS. 6A-6C. ER stress-triggered NADPH oxidase 4 (NOX4) expression, translocation towards the nuclei and DNA oxidation are mediated by the MGST2-LTC4 pathway. (FIG. 6A) Human WISH cells were treated with vehicle (Control) or Brefeldin A (0.66 μg/ml, 24 hours) in the absence or presence of BAY-u9773, MK571 or Montelukast. NOX4 levels were evaluated by immunoblotting. (FIG. 6B) Mouse B16 cells were treated with vehicle (Control) or tunicamycin (0.5 μg/ml, 24 hours) in the absence or presence of Montelukast, BAY-u9773 or BAY-cysLT2. NOX4 levels were evaluated by immunoblotting. (FIG. 6C) Human HaCaT pre-keratinocytes were treated with vehicle (Control) or Brefeldin A (48 hours) in the absence or presence of pranlukast or BAY-u9773, then immunostained with anti 8-OHdG. Quantitative analysis of 8-OHdG fluorescence intensity is shown. N=3 *p<0.05, ****p<0.001.
# Accumulation of nuclear ROS in response to ER stress will result in oxidative DNA damage. To test whether the MGST2-LTC4 pathway is involved in ER stress-triggered DNA damage, the formation of the oxidized DNA derivative 8-hydroxy-2′dexoxyguanosine (8-OHdG) was measured. […] Altogether, the ER stress-triggered DNA damage was mediated to a very large extent by the MGST2-LTC4 pathway.
# [6] = test system: NOX4 in human WISH cells; test: NOX4 levels by immunoblotting, WISH cells under ER stress; assay type: cell-based; conditions: Brefeldin A 0.66 μg/ml, 24 hours
# Protocol: as §2
# Several ligands of G-protein coupled receptors to which CysLTR1 and CysLTR2 belong elicit oxidative stress through receptor-mediated activation of NOX. Human WISH cells and Mouse B16 cells were treated with vehicle (Control) or Brefeldin A (0.66 μg/ml, 24 hours) in the absence or presence of BAY-u9773, MK571 or Montelukast and NOX4 levels were evaluated by immunoblotting.
# [7] = test system: Human WISH cells; test: Tunicamycin-induced cell death, Neutral red viability, WISH cells; assay type: cell-based; conditions: tunicamycin 1 μg/ml, 48 hours, BAY-u9773 80 nM
# Protocol: as §1
# [8] = test system: Mouse B16 cells; test: ER stress-triggered cell death, Crystal violet viability, B16 cells; assay type: cell-based; conditions: 24 hours, MK571 10 μM
# Protocol: (§3) FIGS. 8A-8C. Inhibitors of the MGST2-LTC4 Pathway Attenuate ER Stress-triggered Cell Death. (FIG. 8A) Human WISH cells were treated with vehicle (Control) or Brefeldin A (0.66 μg/ml, 48 hours) in the absence or presence of BAY-cysLT2. The plates were then stained with Crystal violet. Relative viability of the cells is shown. N=4, ***p<0.001. (FIG. 8B) Mouse B16 cells were treated with vehicle (Control) or tunicamycin (1 μg/ml, 24 hours) (Tm), thapsigargin (50 nM, 24 hours) (Tg) or Brefeldin A (BfA […], 24 hours) in the presence or absence of MK571 for 24 h. The plates were stained with Crystal violet. Relative viability of the cells is shown. N=4, ***p<0.001. (FIG. 8C) Immunoblot of the necrosis marker HMGB1 released to the culture media of B16 cells treated with vehicle (Control) or Brefeldin A (1.3 μg/ml, 24 hours) in the presence or absence of MK571. Ponceau staining serves as loading control.
# (§4) On top of its activity as an MRP1 inhibitor, MK571 is a potent selective CysLTR1 antagonist.
# [9] = test system: HMGB1 released from B16 cells; test: Release of necrosis marker HMGB1 to culture medium, immunoblot, B16 cells; assay type: cell-based, mouse; conditions: Brefeldin A 1.3 μg/ml, 24 hours, MK571
# Protocol: as §3, §4
structure (smiles),measurement,setting,value
O=C(O)c1ccc(OCCCc2ccc(OCCCCOc3ccccc3)cc2)c(C(=O)NC2CCCC(C(=O)O)C2)c1 (centres unmarked) [BAY-cysLT2],cell death triggered by simvastatin (relative cell viability),[1],attenuated cell death
same,Brefeldin A-triggered death (relative viability),[2],equally protected these cells from Brefeldin A
same,ROS accumulation (relative DCF fluorescence intensity),[3],significantly inhibited ROS accumulation
CCCCC/C=C\C\C=C/C=C/C=C/[C@@H](Sc1ccc(C(=O)O)cc1)[C@@H](O)CCCC(=O)O [BAY-u9773],cell death triggered by simvastatin (relative cell viability),[1],attenuated cell death
same,ER stress triggered cell death (relative viability),"[4]; Brefeldin A 1.33 μg/ml, 48 hours, BAY-u9773 80 nM",attenuated ER stress triggered cell death
same,formation of nuclear 8-OHdG (oxidative DNA damage),[5],even more effective in attenuating the DNA damage
same,ROS accumulation (relative DCF fluorescence intensity),[3],significantly inhibited ROS accumulation
same,NOX4 expression upon ER stress,[6],greatly inhibited NOX4 expression
same,tunicamycin-induced death (relative viability),[7],significantly attenuated tunicamycin-induced death
CN(C)C(=O)CCSC(SCCC(=O)O)c1cccc(/C=C/c2ccc3ccc(Cl)cc3n2)c1 (centres unmarked) [MK571],cell death triggered by Brefeldin A (relative viability),[8]; Brefeldin A,significantly attenuated cell death
same,cell death triggered by thapsigargin (relative viability),[8]; thapsigargin 50 nM,significantly attenuated cell death
same,cell death triggered by tunicamycin (relative viability),[8]; tunicamycin 1 μg/ml,significantly attenuated cell death
same,NOX4 expression upon ER stress,[6],greatly inhibited NOX4 expression
same,secretion of HMGB1 to the culture medium (cellular necrosis),[9],reduced secretion of HMGB1
O=C(NCCCN1CCOCC1)c1cnn2c(-c3ccccc3)cc(-c3ccccc3)nc12 [reversan],ROS accumulation (relative DCF fluorescence intensity),[3],small but statistically insignificant inhibitory effect on ROS accumulation
CC(c1cc2ccccc2s1)N(O)C(N)=O (centres unmarked) [zileuton],cell death triggered by simvastatin (staining intensity),"[1]; 20 uM simvastatin, 4 days, zileuton 10 μM, montelukast 2 μM",attenuated cell death
same,death triggered by proteasome inhibitor MG262 (relative viability),"[4]; MG262 50 nM, 24 hours, zileuton 10 μM",significantly protected HaCaT keratinocytes from death
